Test results: article PMC10349134, “The RNA-binding protein LRPPRC promotes resistance to CDK4/6 inhibition in lung cancer” (Nature Communications, 2023)

Target: T1, LRPPRC (endogenous, A549 cells) (Homo sapiens, UniProt P42704)
T1 construct: endogenous protein in A549 lung adenocarcinoma cells; no tag
Assay: cellular thermal shift assay (CETSA), immunoblot
Assay type: cell-based
Conditions: 40 μM GAA vs DMSO

For `Cc1cc2c(C(C)C)c(O)c(O)c(C=O)c2c(O)c1-c1c(C)cc2c(C(C)C)c(O)c(O)c(C=O)c2c1O` [GAA], the CETSA thermal stabilization was “GAA could increase the thermal stabilization of LRPPRC”.
